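Five compound concentrations were applied to cells in 96-well plates for 48 hours; endpoints were derived by simple linear interpolation of the resulting dose-response curve. At the GI50, growth is halved. TGI is the concentration that stops growth completely.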 Where a SMILES comes first, the peptide text is derived from it. [ ]: non-standard residue; d: D form. Where only a bound is given, the exact number is not on record here.

Test systems include HOP-62 NSCLC; ACHN renal; OVCAR-8 ovarian; SK-MEL-5 melanoma; HOP-92 NSCLC; SF-295 CNS; MDA-MB-231 breast; CAKI-1 renal; SF-268 CNS.
Common to all, as to assay: DTP human tumour cell line panel, 48 h

Take `CC(C)OC1=C(CC2(C)OCCO2)C(=O)C12OCCO2`: the TGI with HOP-62 NSCLC, in the test with ACHN renal, in the test with OVCAR-8 ovarian, in the test on SK-MEL-5 melanoma, in the test on HOP-92 NSCLC and in the test with SF-295 CNS was more than 100 µM each time. In addition, the total growth inhibition concentration (TGI) with MDA-MB-231 breast, in the test on CAKI-1 renal and with SF-268 CNS was more than 100 µM each time.
Consider `O=C1Sc2ccccc2C(=O)N2CCSC12` (configuration not stated), for which the TGI in the test on HOP-62 NSCLC, in the test on OVCAR-8 ovarian, with SK-MEL-5 melanoma, in the test with HOP-92 NSCLC and with SF-295 CNS was more than 100 µM in each case.
Regarding `COc1cc2nc(-c3cccs3)nc(Nc3ccccc3C(=O)NN)c2cc1OC`, the TGI with HOP-62 NSCLC, in the test on ACHN renal, with OVCAR-8 ovarian, with SK-MEL-5 melanoma, in the test on HOP-92 NSCLC and with SF-295 CNS was more than 100 µM each time. The TGI in the test on MDA-MB-231 breast, in the test with CAKI-1 renal and in the test on SF-268 CNS was more than 100 µM throughout.
Consider `Cc1cc(C)[n+]2c(c1)C=CC2`, for which the concentration for total growth inhibition (TGI) in the test on HOP-62 NSCLC is more than 100 µM; in the test on ACHN renal, more than 100 µM; in the test with OVCAR-8 ovarian, more than 100 µM; in the test on SK-MEL-5 melanoma it was 43.1 µM; in the test on HOP-92 NSCLC it was more than 100 µM; with SF-295 CNS, 71.8 µM. The total growth inhibition concentration (TGI) with CAKI-1 renal and with SF-268 CNS was more than 100 µM each time.
For `CCOC(=O)Cc1[nH]c(C(=O)c2ccccc2)cc1C(=O)c1ccccc1`, the TGI in the test with HOP-62 NSCLC was 51.7 µM; in the test on ACHN renal, more than 10 µM; in the test with OVCAR-8 ovarian, more than 10 µM; in the test with SK-MEL-5 melanoma, more than 100 µM; with SF-295 CNS it was more than 10 µM; in the test with MDA-MB-231 breast it was more than 10 µM. Further, the total growth inhibition concentration (TGI) with SF-268 CNS is more than 100 µM.
Take `O=C1C(Cl)N(c2ccc([N+](=O)[O-])cc2)C1c1c[nH]c2ccccc12` (configuration not stated): the concentration for total growth inhibition (TGI) in the test on HOP-62 NSCLC, in the test on OVCAR-8 ovarian, in the test with SK-MEL-5 melanoma, in the test on HOP-92 NSCLC, with SF-295 CNS and with SF-268 CNS was more than 100 µM throughout.
For the compound `Cc1ccc2sc3c(NCCCN)nc4ccccc4c3c(=O)c2c1`, the GI50 in the test on ACHN renal was 1.71 µM; with OVCAR-8 ovarian it was 2.41 µM; in the test on SK-MEL-5 melanoma it was 1.79 µM; with HOP-92 NSCLC, 1.44 µM; in the test on SF-295 CNS it was 1.8 µM; with MDA-MB-231 breast it was 1.7 µM. The figures for the GI50 with CAKI-1 renal and with SF-268 CNS were 1.67 µM and 1.74 µM, respectively. The concentration for total growth inhibition (TGI) was 3.09 µM in the test with ACHN renal; 5.91 µM in the test on OVCAR-8 ovarian; 3.35 µM in the test on SK-MEL-5 melanoma; 4.65 µM with HOP-92 NSCLC; 3.32 µM in the test with SF-295 CNS; 3.3 µM in the test on MDA-MB-231 breast. Moreover, the values for the TGI in the test with CAKI-1 renal and with SF-268 CNS were 3.25 µM and 3.45 µM, respectively.
As to `CC(C)C[C@H](NC(=O)[C@H](CC(C)C)NC(=O)[C@@H](Cc1c[nH]c2ccccc12)NC(=O)[C@H](Cc1ccccc1)NC(=O)[C@@H](Cc1c[nH]c2ccccc12)NC(=O)[C@H](CCC(N)=O)NC(=O)[C@@H](CCC(N)=O)NC(=O)[C@@H]1CCCN1C(=O)[C@@H](CCCCN)NC(=O)[C@H]1CCCN1C(=O)[C@H](N)CCCN=C(N)N)C(N)=O` (H-[dR][dP][dK]P[dQ]Q[dW]F[dW]LL-NH2), the concentration for total growth inhibition (TGI) in the test with HOP-62 NSCLC, with OVCAR-8 ovarian, in the test with SK-MEL-5 melanoma, with HOP-92 NSCLC, in the test with SF-295 CNS and in the test with SF-268 CNS was more than 100 µM each time.
In the case of `O=S(=O)(O)c1cc(S(=O)(=O)O)c2cc(N=Nc3ccc(N=Nc4ccc(/C=C/c5ccc(N=[N+]([O-])c6ccc(/C=C/c7ccc(N=Nc8ccc(N=Nc9ccc%10cc(S(=O)(=O)O)cc(S(=O)(=O)O)c%10c9)cc8)cc7S(=O)(=O)O)c(S(=O)(=O)O)c6)cc5S(=O)(=O)O)c(S(=O)(=O)O)c4)cc3)ccc2c1`, the TGI is more than 100 µM in the test with HOP-62 NSCLC; more than 100 µM in the test with OVCAR-8 ovarian; more than 100 µM in the test on SK-MEL-5 melanoma; 98.9 µM with HOP-92 NSCLC; more than 74.3 µM in the test on SF-295 CNS; more than 100 µM in the test with SF-268 CNS.
As for `CC(=O)/C=C(/C)[O-].CC(=O)/C=C(/C)[O-].CC(=O)[CH-]C(C)=O.CC(=O)[CH-]C(C)=O.[Zr+4]`, the GI50 in the test with HOP-62 NSCLC, in the test on ACHN renal and with SF-268 CNS was more than 100 µM throughout. Moreover, the TGI in the test with HOP-62 NSCLC, in the test with ACHN renal and in the test with SF-268 CNS was more than 100 µM throughout.
For `CC(C)(C)OC(=O)N1C(=O)C2CCCC21` (configuration not stated), the total growth inhibition concentration (TGI) in the test with HOP-62 NSCLC, in the test on ACHN renal, in the test with OVCAR-8 ovarian, in the test with SK-MEL-5 melanoma, with HOP-92 NSCLC and in the test with MDA-MB-231 breast was more than 100 µM each time. This compound showed a TGI in the test on SF-268 CNS of more than 100 µM.
Take `Clc1ccc(C2SCc3nc4ccccc4n32)cc1` (configuration not stated): the TGI with ACHN renal was more than 100 µM; in the test on OVCAR-8 ovarian, more than 100 µM; in the test on SK-MEL-5 melanoma it was 23.3 µM; in the test on HOP-92 NSCLC, 22.3 µM; in the test on SF-295 CNS it was more than 100 µM; with CAKI-1 renal, 73.9 µM. In the test with SF-268 CNS, this compound showed a TGI of 88.4 µM.

The TGI is the concentration at which net growth stops. A lower TGI goes with greater sensitivity of the cells. As a reminder, the GI50 is the concentration giving 50% growth inhibition.

(Values after PubChem BioAssay (NCI).)
